In patent US10328088B2, “Use of aminosalicylates in diarrhoea-predominent irritable bowel syndrome” (Salix Pharmaceuticals, Inc., priority 2004, dated 2019):

Tests used:
Format in all cases: in vivo, human
[1] = test system: diarrhoea predominant Irritable Bowel Syndrome; assay: Example 3: case of a person with diarrhoea predominant Irritable Bowel Syndrome treated with Salofalk granules, then balsalazide
[2] = test system: diarrhoea-predominant Irritable Bowel Syndrome; assay: Inventor's clinical experience in patients with diarrhoea-predominant IBS; conditions: from clinical experience
Excerpt: Balsalazide is better than mesalazine (5-ASA) in controlling and may inhibit even more powerfully the symptoms of diarrhoea-predominant IBS and associated conditions enumerated below. This is unexpected. It was not expected that balsalazide would be capable of treating diarrhoea-predominant IBS as it is a very different molecule to the conventional 4ASA and 5ASA compounds. […] It is noted that the side chain together with the 5-ASA potentiates inhibition of gas production, cramping, fluid secretion, and mucus production. It appears the large side chain apart from the salicylate component is effective in treating diarrhoea. In addition, in a subgroup of patients the constipation component of IBS may respond to the same treatment.

chronic IBS = assay: Example 2: case of a person with chronic IBS (diarrhoea with intervening constipation, diverticulosis) treated with balsalazide
Excerpt: A person complained of greater than 20 years of diarrhoea with intervening constipation, abdominal bloating, pains, flatulence, and nausea with acid reflux. They had undergone several complete medical investigations including stool tests, blood tests, X-ray imaging and colonoscopic examinations, with negative findings apart from the presence of diverticulosis. Diagnosed as chronic IBS they tried increasing fibre intake, controlling stress, and changing their diet, all to no avail. On commencing balsalazide 1.5 g/day and pushing the dose upwards to 4.5 g/d their diarrhoea, pains, flatulence and nausea abated. At the higher dose the constipation also disappeared.

[3] = test system: diarrhoea-predominant IBS; assay: Example 1: case of a person with severe diarrhoea-predominant IBS treated with balsalazide
Excerpt: A person presented with a 7 year history of worsening diarrhoea (watery 6-12/day), urgency, cramping lower abdominal pain and at times faecal incontinence. There was no clear preceding illness nor antibiotic usage. They underwent numerous investigations, beginning with general practitioners ordering stool cultures, blood tests, ultrasound and CT scan examinations. With the passage of time they noticed that some foods caused worsening of symptoms, and was told by a naturopath that they suffered from a ‘food allergy’. […] They consulted a gastroenterologist and underwent endoscopic small bowel biopsy—where coeliac disease was excluded histologically—and colonoscopy with biopsy and further stool cultures. All tests being non-diagnostic, they were told they had severe, diarrhoea-predominant IBS. They continued on the restricted diet, and was referred for counselling and hypnotherapy. Over the next 6-12 months they progressively lost weight with only modest control of their symptoms by the diet. Within 2 weeks of commencing increasing doses of balsalazide from 1.5 gram to 3 grams per day, the stools progressively formed up, with frequency reducing to 1-2 formed stools per day. […] By 6 weeks of treatment they regained 7 kg in weight.

[4] = balsalazide 1.5 gram to 3 grams per day

## O=C(O)CCNC(=O)c1ccc(/N=N/c2ccc(O)c(C(=O)O)c2)cc1 [balsalazide, 5[(1E)-[4-[[(2-carboxyethyl)amino]carbonyl]phenyl]azo]-2-hydroxybenzoic acid]
[1]; 750 mg twice daily slowly raised to 1.5 grams twice daily
  improvement in symptoms: dramatic
[1]; 3 grams twice daily
  stool frequency: two
  symptoms: largely disappeared
  urgency or flatulence: without any urgency or flatulence
[1]; at four months follow up
  durability of improvements: sustained
[2]
  suppression of symptoms of diarrhoea-predominant Irritable Bowel Syndrome compared with conventional 4ASA and 5ASA compounds: much more powerful
Chronic IBS; at 26 weeks
  durability of improvements: remain sustained
Chronic IBS; at the higher dose (4.5 g/d)
  constipation: disappeared
Chronic IBS; balsalazide 1.5 g/day pushed upwards to 4.5 g/d
  diarrhoea, pains, flatulence and nausea: abated
[3]; [4]
  pain: completely abolished
  urgency: disappaeared
[3]; by 6 weeks of treatment
  weight regained: 7 kg
[3]; on balsalazide at 26 weeks
  symptom status at follow up: virtually completely symptom-free
[3]; within 2 weeks of increasing doses from 1.5 gram to 3 grams per day, baseline watery 6-12/day
  stool frequency: 1-2 formed stools per day
